In PubChem BioAssay AID1745844 (Carcinogenic Potency Database (CPDB), 2022):
“And” between values parts separate entries of the source, which are not always exact repeats. Identical values can stand only once. The source made the active and inactive calls. No rule for the calls is given here.

Test system: rodent lifetime carcinogenesis bioassay, tumor incidence TD50
Assay: chronic cancer bioassays in animals – CPDB, compiled studies (AID 1745844)

Q: With `CNC[C@H](O)c1cccc(O)c1` as the molecule, how does the TD50 (mouse, strain B6C3F1, females, in feed, site: any site (literature study), lesion: several types, types named in the paper, dosed 103 weeks, study length 104 weeks) read?
A: 911 mg/kg/day (inactive)

Q: And the TD50 (mouse, strain B6C3F1, females, in feed, site: liver, lesion: hepatocellular adenoma + hepatocellular carcinoma + neoplastic nodule, dosed 103 weeks, study length 104 weeks)?
A: 7850 mg/kg/day

Q: And the TD50 (mouse, strain B6C3F1, females, in feed, site: lung, lesion: alveolar/bronchiolar adenoma + alveolar/bronchiolar carcinoma, dosed 103 weeks, study length 104 weeks)?
A: 1610 mg/kg/day

Q: What about the TD50 (mouse, strain B6C3F1, males, in feed, site: any site (literature study), lesion: several types, types named in the paper, dosed 103 weeks, study length 104 weeks) of the same molecule?
A: 6330 mg/kg/day

Q: What about the TD50 (mouse, strain B6C3F1, males, in feed, site: liver, lesion: hepatocellular adenoma + hepatocellular carcinoma + neoplastic nodule, dosed 103 weeks, study length 104 weeks) of the same molecule?
A: 4270 mg/kg/day

Q: What about the TD50 (mouse, strain B6C3F1, males, in feed, site: lung, lesion: alveolar/bronchiolar adenoma + alveolar/bronchiolar carcinoma, dosed 103 weeks, study length 104 weeks) of the same molecule?
A: 2130 mg/kg/day

Q: What about the TD50 (mouse, strain B6C3F1, males, in feed, site: multiple organs + spleen, lesion: malignant lymphoma, mixed type, dosed 103 weeks, study length 104 weeks) of the same molecule?
A: 1720 mg/kg/day

Q: And the TD50 (mouse, strain B6C3F1, males, in feed, site: subcutaneous tissue, lesion: fibrosarcoma, dosed 103 weeks, study length 104 weeks)?
A: 1640 mg/kg/day (inactive)

Q: What about the TD50 (rat, strain Fischer 344, females, in feed, site: any site (literature study), lesion: several types, types named in the paper, dosed 103 weeks, study length 104 weeks) of the same molecule?
A: 272 mg/kg/day (inactive)

Q: What about the carcinogen call (rat, strain Fischer 344, males, in feed, site: any site (literature study), lesion: several types, types named in the paper, dosed 103 weeks, study length 104 weeks) of the same molecule?
A: negative (inactive)

Q: What does the source list for `COP(=O)(OC)OC(=CCl)c1cc(Cl)c(Cl)cc1Cl`?
A: TD50 (mouse, strain B6C3F1, females, in feed, site: any site (literature study), lesion: several types, types named in the paper, dosed 80 weeks, study length 92 weeks): 7880 mg/kg/day; TD50 (mouse, strain B6C3F1, females, in feed, site: kidney, lesion: several types, types named in the paper, dosed 103 weeks, study length 103 weeks): 32100 mg/kg/day; TD50 (mouse, strain B6C3F1, females, in feed, site: liver, lesion: hepatocellular adenoma + hepatocellular carcinoma + neoplastic nodule, dosed 80 weeks, study length 92 weeks): 905 mg/kg/day; TD50 (mouse, strain B6C3F1, females, in feed, site: liver, lesion: hepatocellular carcinoma + neoplastic nodule, dosed 80 weeks, study length 90 weeks): 1070 mg/kg/day; TD50 (mouse, strain B6C3F1, females, in feed, site: liver, lesion: hepatocellular carcinoma + neoplastic nodule, dosed 80 weeks, study length 92 weeks): 905 mg/kg/day; TD50 (mouse, strain B6C3F1, females, in feed, site: liver, lesion: hepatocellular carcinoma, dosed 103 weeks, study length 103 weeks): 12400 mg/kg/day and 8990 mg/kg/day; TD50 (mouse, strain B6C3F1, females, in feed, site: liver, lesion: neoplastic nodule, dosed 80 weeks, study length 90 weeks): 1380 mg/kg/day; TD50 (mouse, strain B6C3F1, females, in feed, site: liver, lesion: several types, types named in the paper, dosed 103 weeks, study length 103 weeks): 10200 mg/kg/day and 6330 mg/kg/day; TD50 (mouse, strain B6C3F1, females, in feed, site: lung, lesion: alveolar/bronchiolar adenoma + alveolar/bronchiolar carcinoma, dosed 80 weeks, study length 92 weeks): 7790 mg/kg/day; TD50 (mouse, strain B6C3F1, males, in feed, site: any site (literature study), lesion: several types, types named in the paper, dosed 80 weeks, study length 92 weeks): 295 mg/kg/day; TD50 (mouse, strain B6C3F1, males, in feed, site: kidney, lesion: several types, types named in the paper, dosed 103 weeks, study length 103 weeks): 4420 mg/kg/day; TD50 (mouse, strain B6C3F1, males, in feed, site: kidney, lesion: tubular adenoma, dosed 103 weeks, study length 103 weeks): 37600 mg/kg/day; TD50 (mouse, strain B6C3F1, males, in feed, site: kidney, lesion: tubular carcinoma, dosed 103 weeks, study length 103 weeks): 5260 mg/kg/day; TD50 (mouse, strain B6C3F1, males, in feed, site: liver, lesion: hepatocellular adenoma + hepatocellular carcinoma + neoplastic nodule, dosed 80 weeks, study length 92 weeks): 228 mg/kg/day; TD50 (mouse, strain B6C3F1, males, in feed, site: liver, lesion: hepatocellular adenoma, dosed 103 weeks, study length 103 weeks): 18300 mg/kg/day; TD50 (mouse, strain B6C3F1, males, in feed, site: liver, lesion: hepatocellular carcinoma + neoplastic nodule, dosed 80 weeks, study length 90 weeks): 280 mg/kg/day; TD50 (mouse, strain B6C3F1, males, in feed, site: liver, lesion: hepatocellular carcinoma + neoplastic nodule, dosed 80 weeks, study length 92 weeks): 228 mg/kg/day; TD50 (mouse, strain B6C3F1, males, in feed, site: liver, lesion: hepatocellular carcinoma, dosed 80 weeks, study length 90 weeks): 534 mg/kg/day; TD50 (mouse, strain B6C3F1, males, in feed, site: liver, lesion: hepatocellular carcinoma, dosed 80 weeks, study length 92 weeks): 466 mg/kg/day; TD50 (mouse, strain B6C3F1, males, in feed, site: liver, lesion: hepatocellular carcinoma, dosed 103 weeks, study length 103 weeks): 1530 mg/kg/day; TD50 (mouse, strain B6C3F1, males, in feed, site: liver, lesion: neoplastic nodule, dosed 80 weeks, study length 90 weeks): 1770 mg/kg/day; TD50 (mouse, strain B6C3F1, males, in feed, site: liver, lesion: several types, types named in the paper, dosed 103 weeks, study length 103 weeks): 1150 mg/kg/day; TD50 (mouse, strain B6C3F1, males, in feed, site: lung, lesion: alveolar/bronchiolar adenoma + alveolar/bronchiolar carcinoma, dosed 80 weeks, study length 92 weeks): 401000 mg/kg/day; TD50 (rat, strain Osborne-Mendel, females, in feed, site: adrenal gland, lesion: cortical adenoma, dosed 80 weeks, study length 109 weeks): 2280 mg/kg/day; TD50 (rat, strain Osborne-Mendel, females, in feed, site: pituitary gland, lesion: chromophobe adenoma, dosed 80 weeks, study length 111 weeks): 1580 mg/kg/day (inactive); TD50 (rat, strain Osborne-Mendel, females, in feed, site: thyroid gland, lesion: c-cell adenoma, dosed 80 weeks, study length 109 weeks): 1920 mg/kg/day; carcinogen call (rat, strain Osborne-Mendel, males, in feed, site: any site (literature study), lesion: several types, types named in the paper, dosed 80 weeks, study length 111 weeks): negative (inactive)

Q: With `C[N+](C)(C)CCCl` as the molecule, how does the TD50 (mouse, strain B6AKF1, females, oral dosing, site: any site (literature study), lesion: several types, types named in the paper, dosed 76 weeks, study length 76 weeks) read?
A: 33.5 mg/kg/day

Q: What about the TD50 (mouse, strain B6AKF1, males, oral dosing, site: any site (literature study), lesion: several types, types named in the paper, dosed 76 weeks, study length 76 weeks) of the same molecule?
A: 21.3 mg/kg/day

Q: What about the TD50 (mouse, strain B6AKF1, males, oral dosing, site: liver, lesion: hepatoma, dosed 76 weeks, study length 76 weeks) of the same molecule?
A: 11.4 mg/kg/day

Q: What about the carcinogen call (mouse, strain B6C3F1, females, in feed, site: any site (literature study), lesion: several types, types named in the paper, dosed 102 weeks, study length 102 weeks) of the same molecule?
A: negative (inactive)

Q: And the TD50 (mouse, strain B6C3F1, females, oral dosing, site: any site (literature study), lesion: several types, types named in the paper, dosed 76 weeks, study length 76 weeks)?
A: 57.4 mg/kg/day

Q: And the TD50 (mouse, strain B6C3F1, males, in feed, site: any site (literature study), lesion: several types, types named in the paper, dosed 102 weeks, study length 102 weeks)?
A: 3240 mg/kg/day (inactive)

Q: And the TD50 (mouse, strain B6C3F1, males, in feed, site: liver, lesion: hepatocellular adenoma + hepatocellular carcinoma + neoplastic nodule, dosed 102 weeks, study length 102 weeks)?
A: 599 mg/kg/day

Q: What about the TD50 (mouse, strain B6C3F1, males, oral dosing, site: any site (literature study), lesion: several types, types named in the paper, dosed 76 weeks, study length 76 weeks) of the same molecule?
A: 5.19 mg/kg/day

Q: What about the TD50 (mouse, strain B6C3F1, males, oral dosing, site: liver, lesion: hepatoma, dosed 76 weeks, study length 76 weeks) of the same molecule?
A: 9.38 mg/kg/day

Q: And the carcinogen call (rat, strain Fischer 344, females, in feed, site: any site (literature study), lesion: several types, types named in the paper, dosed 108 weeks, study length 108 weeks)?
A: negative (inactive)

Q: What about the TD50 (rat, strain Fischer 344, females, in feed, site: liver, lesion: hepatocellular adenoma + hepatocellular carcinoma + neoplastic nodule, dosed 108 weeks, study length 108 weeks) of the same molecule?
A: 8090 mg/kg/day

Q: What about the TD50 (rat, strain Fischer 344, males, in feed, site: any site (literature study), lesion: several types, types named in the paper, dosed 108 weeks, study length 108 weeks) of the same molecule?
A: 3360 mg/kg/day

Q: What about the TD50 (rat, strain Fischer 344, males, in feed, site: pancreatic islets, lesion: islet-cell adenoma, dosed 108 weeks, study length 108 weeks) of the same molecule?
A: 458 mg/kg/day (inactive)

Q: How did the TD50 (rat, strain MRC-Wistar, females, in drinking water, site: any site (literature study), lesion: several types, types named in the paper, dosed 52 weeks, study length 130 weeks) turn out when `CN(N=O)C(=O)c1ccccc1` was run?
A: 11.2 mg/kg/day

Q: What about the carcinogen call (rat, strain MRC-Wistar, females, in drinking water, site: liver, lesion: one or several types, types not named, dosed 52 weeks, study length 130 weeks) of the same molecule?
A: negative (inactive)

Q: What about the TD50 (rat, strain MRC-Wistar, males, in drinking water, site: any site (literature study), lesion: several types, types named in the paper, dosed 52 weeks, study length 130 weeks) of the same molecule?
A: 2.49 mg/kg/day

Q: And the TD50 (rat, strain MRC-Wistar, males, in drinking water, site: forestomach, lesion: several types, types named in the paper, dosed 52 weeks, study length 130 weeks)?
A: 3.23 mg/kg/day

Q: What about the TD50 (rat, strain MRC-Wistar, males, in drinking water, site: forestomach, lesion: squamous-cell carcinoma, dosed 52 weeks, study length 130 weeks) of the same molecule?
A: 9.66 mg/kg/day

Q: And the TD50 (rat, strain MRC-Wistar, males, in drinking water, site: forestomach, lesion: squamous-cell papilloma, dosed 52 weeks, study length 130 weeks)?
A: 7.73 mg/kg/day

Q: And the carcinogen call (rat, strain MRC-Wistar, males, in drinking water, site: liver, lesion: one or several types, types not named, dosed 52 weeks, study length 130 weeks)?
A: negative (inactive)
